# Measured values: patent US20260285850A1, “SUBSTITUTED OXAZOLIDINONES AND IMIDAZOLINONES AS HERBICIDES” (FMC CORPORATION, priority 2023, published 2026)
# Assays:
# Type in all cases: in vivo
# [1] = test system: blackgrass (Alopecurus myosuroides); assay: Test A postemergence application, visual injury rating 0-100; conditions: Postemergence, 1000 g ai/ha, 0 to 100 scale, 10 days
# In short: (§1)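 Directed preemergence spray onto seeded soil or postemergence spray onto 2-10 cm plants (loam plus sand); compound carried in surfactant-containing non-phytotoxic solvent. Injury rated by eye after 10 d greenhouse growth; 0 = no effect, 100 = complete control.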
# [2] = test system: goosegrass (Eleusine indica); assay: as above; conditions: 1000 g ai/ha, 0 to 100 scale, 10 days
# In short: as §1
# [3] = test system: ryegrass, Italian (italian ryegrass, Lolium multiflorum); assay: as above; conditions: Postemergence, 1000 g ai/ha, 0 to 100 scale, 10 days
# In short: as §1
# [4] = test system: palmer (palmer amaranth, palmer pigweed, Amaranthus palmeri); assay: as above; conditions: Postemergence, 1000 g ai/ha, 0 to 100 scale, 10 days
# In short: as §1
# [5] = test system: horseweed (Erigeron canadensis); assay: as above; conditions: Postemergence, 1000 g ai/ha, 0 to 100 scale, 10 days
# In short: as §1
# [6] = test system: ragweed (common ragweed, Ambrosia artemisiifolia); assay: as above; conditions: Postemergence, 1000 g ai/ha, 0 to 100 scale, 10 days
# In short: as §1
# kochia (Bassia scoparia) [7] = assay: as above; conditions: Postemergence, 1000 g ai/ha, 0 to 100 scale, 10 days
# In short: as §1
# [8] = test system: foxtail, giant (giant foxtail, Setaria faberi); assay: as above; conditions: 1000 g ai/ha, 0 to 100 scale, 10 days
# In short: as §1
# [9] = test system: galium (catchweed bedstraw, Galium aparine); assay: as above; conditions: Postemergence, 1000 g ai/ha, 0 to 100 scale, 10 days
# In short: as §1
# [10] = test system: blackgrass (Alopecurus myosuroides); assay: Test A preemergence soil spray, visual injury rating 0-100; conditions: 1000 g ai/ha, 10 days, 0 = no effect, 100 = complete control
# In short: as §1
# [11] = test system: goosegrass (Eleusine indica); assay: as above; conditions: 1000 g ai/ha, 10 days, 0 = no effect, 100 = complete control
# In short: as §1
# [12] = test system: ryegrass, Italian (italian ryegrass, Lolium multiflorum); assay: as above; conditions: 1000 g ai/ha, 10 days, 0 = no effect, 100 = complete control
# In short: as §1
# [13] = test system: palmer (palmer amaranth, palmer pigweed, Amaranthus palmeri); assay: as above; conditions: 1000 g ai/ha, 10 days, 0 = no effect, 100 = complete control
# In short: as §1
# [14] = test system: ragweed (common ragweed, Ambrosia artemisiifolia); assay: as above; conditions: 1000 g ai/ha, 10 days, 0 = no effect, 100 = complete control
# In short: as §1
# kochia (Bassia scoparia) [15] = assay: as above; conditions: 1000 g ai/ha, 10 days, 0 = no effect, 100 = complete control
# In short: as §1
# [16] = test system: foxtail, giant (giant foxtail, Setaria faberi); assay: as above; conditions: 1000 g ai/ha, 10 days, 0 = no effect, 100 = complete control
# In short: as §1
# [17] = test system: sedge, umbrella (small-flower umbrella sedge, Cyperus difformis); assay: Test B flooded paddy test, visual plant response rating 0-100; conditions: 250 g ai/ha, Flood, applied to paddy water, evaluated after 13 days
# In short: (§2)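 Paddy-water application: test compounds went directly into water flooded 3 cm above the soil surface, with plants at 2 leaves. After a 13-day greenhouse period, responses were judged by eye relative to controls; a dash marks an untested entry.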
# [18] = test system: ducksalad (Heteranthera limosa); assay: as above; conditions: 250 g ai/ha, Flood, applied to paddy water, evaluated after 13 days
# In short: as §2
# rice (Oryza sativa) = assay: as above; conditions: 250 g ai/ha, Flood, applied to paddy water, evaluated after 13 days
# In short: as §2
# [19] = test system: barnyardgrass (Echinochloa crusgalli); assay: as above; conditions: 250 g ai/ha, Flood, applied to paddy water, evaluated after 13 days
# In short: as §2
smiles,measurement,setting,value
CCOC(=O)C1C=CC(NC(=O)C2(C)CN(c3cc(F)cc(F)c3)C(=O)O2)C1 (centres unmarked) [Compound 28],Blackgrass plant response rating,[1],100
same,Goosegrass plant response rating,[2],90
same,"Ryegrass, Italian plant response rating",[3],80
same,"Amaranth, Palmer plant response rating",[4],90
same,Horseweed plant response rating,[5],80
same,Ragweed plant response rating,[6],70
same,Kochia plant response rating,kochia (Bassia scoparia) [7],80
same,"Foxtail, Giant plant response rating",[8],90
same,Galium plant response rating,[9],70
same,Blackgrass plant response rating (0 to 100 scale),[10],90
same,Goosegrass plant response rating (0 to 100 scale),[11],100
same,"Ryegrass, Italian plant response rating (0 to 100 scale)",[12],100
same,"Amaranth, Palmer / Pigweed, Palmer plant response rating (0 to 100 scale)",[13],100
same,Ragweed plant response rating (0 to 100 scale),[14],80
same,Kochia plant response rating (0 to 100 scale),kochia (Bassia scoparia) [15],100
same,"Foxtail, Giant plant response rating (0 to 100 scale)",[16],100
same,"Plant response rating, Sedge, Umbrella (0 to 100 scale, 0 is no effect and 100 is complete control)",[17],65
same,"Plant response rating, Ducksalad (0 to 100 scale, 0 is no effect and 100 is complete control)",[18],75
same,"Plant response rating, Rice (0 to 100 scale, 0 is no effect and 100 is complete control)",rice (Oryza sativa),70
same,"Plant response rating, Barnyardgrass (0 to 100 scale, 0 is no effect and 100 is complete control)",[19],85
